According to paper PMC9916969 (International Journal of Molecular Sciences, 2023):
Like-named read-outs stand apart in the source and are kept apart here.

What was measured:
EeAChE PAS = molecular target: T1, EeAChE PAS (Electrophorus electricus, UniProt O42275); assay type: binding; details: compound 20 µM; EeAChE 7 µM; propidium iodide 8 µM
T1 construct: The enzyme was electric eel AChE (EeAChE type VI-S, lyophilized powder, Sigma-Aldrich); purchased Sigma-Aldrich type VI-S; host or cells: electric eel (tissue-derived)
Description: This method is widely used as a screening approach to assess the potential ability of compounds to block AChE-induced β-amyloid aggregation. This is because when the compounds bind to the AChE PAS, they prevent the binding of β-amyloid, thereby inhibiting its aggregation.
The enzyme was electric eel AChE (EeAChE type VI-S, lyophilized powder, Sigma-Aldrich). We selected this source of AChE for consistency with our other reports and because of the purity, specific activity, and lower cost compared to human AChE.
Propidium iodide (final concentration 8 μM) was then added for a further 15 min incubation, and the fluorescence spectrum was taken (530 nm excitation and 600 nm emission) using a FLUOStar Optima microplate reader. The same concentration of propidium iodide in the Tris buffer was used as the blank. Triplicate determinations were recorded and the results were calculated via the following equation:% Displacement = 100 − (IFAChE+ Propidium + inhibitor/IFAChE + Propidium) × 100, where IFAChE + Propidium = fluorescence intensity of propidium iodide associated with AChE in the absence of the test compound (taken as 100%), and IFAChE + Propidium + inhibitor = fluorescence intensity of propidium iodide associated with AChE in the presence of the test compound.

human erythrocyte AChE = molecular target: T2, human erythrocyte AChE (Homo sapiens, UniProt P22303); assay: biochemical; details: mean ± SEM, n = 3, read-out: Inhibitory activity against AChE, IC50
T2 construct: human erythrocyte AChE, equine serum BChE, and porcine liver CES were used; purchased Sigma-Aldrich; host or cells: human erythrocytes (tissue-derived)
Description: (§1) Assessment of the esterase profile of new potential anti-AD molecules enables the estimation of both the primary pharmacological effects of the tested compounds—their inhibition of AChE and BChE—and their possible unwanted side effect—inhibition of CES, which hydrolyzes numerous ester-containing drugs. For the esterase profile evaluation, human erythrocyte AChE, equine serum BChE, and porcine liver CES were used. These sources of BChE and CES were employed because of their relatively low cost, high sequence identity to human enzymes, and the exploratory character of this work.
(§2) Chromophore absorbances were measured with a FLUOStar Optima microplate reader (BMG Labtech, Ortenberg, Germany). […] Initially, we used a single concentration of 20 µM for all compounds.

equine serum BChE [1] = molecular target: T3, equine serum BChE (Equus caballus, UniProt P81908); assay: biochemical; details: mean ± SEM, n = 3, read-out: Inhibitory activity against BChE, IC50
T3 construct: human erythrocyte AChE, equine serum BChE, and porcine liver CES were used; purchased Sigma-Aldrich; host or cells: equine serum (tissue-derived)
Description: as §1, §2

[2] = Metal chelation by UV-Vis spectroscopy, Cu2+; details: ethanol, 25 °C; compound and metal 40 μM; difference spectra; two bands per compound
[3] = ABTS radical cation scavenging assay; set-up: key to ABTS^•+ Scavenging Activity, TEAC: TEAC: ratio of compound slope to Trolox slope (Trolox equivalents); details: 1 h incubation
Procedure: In the ABTS assay, the dark-green ABTS cation-radical (ABTS^•+) is quenched by interaction with AOs. The consequent decrease in absorbance is followed spectrophotometrically per the previously described method.
Radical scavenging activity of the compounds was assessed using the ABTS radical cation (ABTS^•+) decolorization assay with some modifications. ABTS (2,2′-azinobis-(3-ethylbenzothiazoline-6-sulfonic acid) was purchased from Tokyo Chemical Industry Co., Ltd. (Tokyo, Japan); potassium persulfate (dipotassium peroxodisulfate), Trolox (6-hydroxy-2,5,7,8-tetramethylchroman-2-carboxylic acid), and HPLC-grade ethanol and DMSO were obtained from Sigma-Aldrich (Saint Louis, MO, USA). Aqueous solutions were prepared using deionized water. All tested compounds were dissolved in DMSO.
The solution of cation radical ABTS^•+ was produced by incubation of an aqueous solution of 7 mM ABTS and 2.45 mM potassium persulfate solution in equal quantities for 12–16 h at room temperature in the dark. Radical scavenging capacity of the compounds was analyzed by mixing 10 μL of compound with 240 μL of ABTS^•+ working solution in ethanol (100 μM final concentration). The reaction was monitored for an hour at 30 °C with an interval of 10 min. Data are given for 1 h of incubation of compounds with ABTS^•+. The reduction in absorbance was measured spectrophotometrically at 734 nm using an xMark microplate UV/VIS spectrophotometer (Bio-Rad, Hercules, CA, USA). Ethanol blanks were run in each assay. Values were obtained from five replicates of each sample and three independent experiments.
The standard AO Trolox was used as a reference compound. AO capacity as Trolox equivalent (TEAC) values was determined as the ratio between the slopes obtained from the linear correlation of the ABTS radical absorbance with the concentrations of tested compounds and Trolox. Ascorbic acid was used as a positive control. […]. The compounds were tested in the concentration range of 0.5–100 µM.

FRAP assay = details: Trolox equivalents; 60 min, 37 °C; n.a. = not active
Procedure: The Ferric Reducing Antioxidant Power (FRAP) test involves reduction of the ferric 2,4,6-tripyridyl-s-triazine complex [Fe(TPTZ)2]^3+ to an intense-blue ferrous complex [Fe(TPTZ)2]^2+ [92], as previously reported. Results are given as Trolox Equivalents (TE).
The FRAP (ferric reducing antioxidant power) assay proposed by Benzie and Strain [92] was modified to be performed in 96-well microplates as described in detail in [53]. The FRAP reagent contained 2.5 mL of 10 mM TPTZ (2,4,6-tris(2-pyridyl)-s-triazine, Sigma-Aldrich) solution in 40 mM HCl, 2.5 mL of 20 mM FeCl3 (Sigma-Aldrich) in distilled water and 25 mL of 0.3 M acetate buffer (pH 3.6). Aliquots of 10 µL of the test compound dissolved in DMSO (0.5 mM) were placed in quadruplicate. Absorbance was measured at a wavelength of 593 nm after 60 min incubation at 37 °C. In each case, Trolox was used as a reference compound to obtain the standard curve. The AO activity was calculated with respect to the activity of Trolox and expressed as Trolox equivalents (TE)—the values calculated as the ratio of the concentrations of Trolox and the test compound resulting in the same effect on ferric reducing activity.

porcine liver CES [4] = assay: In vitro CES inhibition (4-NPA substrate); assay type: biochemical; details: compound 20 µM, n.a. = not active
Description: as §1, §2

β-amyloid (1–42) (Aβ42) = β-amyloid (1–42) (Aβ42) (Homo sapiens, UniProt P05067); assay: Inhibition of Aβ42 self-aggregation (thioflavin T); assay type: biochemical; details: Aβ42 50 µM; compound 100 µM; 24 h, 37 °C; thioflavin T; read-out: Inhibition of Aβ42 Self-Aggregation
Procedure: The inhibitory activity of tested hybrids against the self-aggregation of Aβ42 was determined in vitro using the thioflavin T (ThT) fluorimetric assay. According to [84], the ThT test is ideal for preliminary screening of inhibitors of Aβ42 self-aggregation, as it enables the quantitative testing of large numbers of compounds within a relatively short time.
The influence of the inhibitory effect of the test compounds toward Aβ42 self-aggregation was determined using the thioflavin T (ThT) fluorescence method with minor modifications. This assay is based on a specific interaction between the fluorescent dye thioflavin T that binds to the β-sheets of assembled amyloid fibrils leading to a significant increase in fluorescence signal. Therefore, the decrease in ThT fluorescence correlates with the ability of the studied compounds to inhibit the formation of amyloid aggregates.
One mg of lyophilized HFIP-pretreated Aβ42 from BACHEM (Bubendorf, Switzerland) was dissolved in DMSO to obtain a stable initial solution ([Aβ42] = 500 μM); then it was aliquoted and stored at −20 °C.
For the measurement of Aβ42 self-aggregation and amyloid fibril inhibition studies by the tested compounds, aliquots of 500 μM Aβ42 stock solution were diluted in 215 mM Na-phosphate buffer pH = 8.0 to a final concentration of 50 μM Aβ42. Then the samples were incubated for 24 h at 37 °C without stirring in the absence (base level of Aβ42 self-aggregation, control) or presence of the test compounds. Myricetin and propidium iodide were used as reference compounds (positive controls). All compounds were used in a concentration of 100 µM. To quantify Aβ42 fibril formation, after incubation, 5 μM ThT in 50 mM glycine-NaOH buffer pH 8.5 was added to the solutions to a final concentration of 4 μM ThT and the fluorescence was measured at 440 nm (excitation) and 485 nm (emission). Analyses were performed with a FLUOStar Optima microplate reader (LabTech, Ortenberg, Germany). The blanks consisted of 215 mM Na-phosphate buffer, pH = 8.0, 20% (v/v) DMSO or test compounds, respectively. Each assay was run in triplicate.

equine serum BChE [5] = molecular target: T3, equine serum BChE; details: compound 20 µM; cited from earlier work
[6] = cited from earlier work
porcine liver CES [7] = details: compound 20 µM; cited from earlier work

T3 sequence (P81908 whole entry): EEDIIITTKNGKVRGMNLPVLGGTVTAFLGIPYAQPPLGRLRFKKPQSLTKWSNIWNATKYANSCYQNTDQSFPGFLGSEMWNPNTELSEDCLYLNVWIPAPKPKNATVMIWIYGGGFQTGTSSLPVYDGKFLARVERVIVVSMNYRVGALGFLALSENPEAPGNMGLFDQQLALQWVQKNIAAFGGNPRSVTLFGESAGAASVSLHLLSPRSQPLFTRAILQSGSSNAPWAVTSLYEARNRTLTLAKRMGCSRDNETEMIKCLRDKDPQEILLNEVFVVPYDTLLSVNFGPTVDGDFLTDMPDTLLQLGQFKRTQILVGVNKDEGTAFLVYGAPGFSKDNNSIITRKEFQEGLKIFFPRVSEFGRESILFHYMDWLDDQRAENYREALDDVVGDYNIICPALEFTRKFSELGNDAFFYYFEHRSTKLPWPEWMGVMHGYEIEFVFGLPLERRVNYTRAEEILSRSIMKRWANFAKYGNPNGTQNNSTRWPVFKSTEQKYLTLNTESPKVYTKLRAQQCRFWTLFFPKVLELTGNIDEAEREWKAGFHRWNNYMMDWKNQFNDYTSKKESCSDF
T2 sequence (P22303 32-617 isoform P22303-2 limits assumed): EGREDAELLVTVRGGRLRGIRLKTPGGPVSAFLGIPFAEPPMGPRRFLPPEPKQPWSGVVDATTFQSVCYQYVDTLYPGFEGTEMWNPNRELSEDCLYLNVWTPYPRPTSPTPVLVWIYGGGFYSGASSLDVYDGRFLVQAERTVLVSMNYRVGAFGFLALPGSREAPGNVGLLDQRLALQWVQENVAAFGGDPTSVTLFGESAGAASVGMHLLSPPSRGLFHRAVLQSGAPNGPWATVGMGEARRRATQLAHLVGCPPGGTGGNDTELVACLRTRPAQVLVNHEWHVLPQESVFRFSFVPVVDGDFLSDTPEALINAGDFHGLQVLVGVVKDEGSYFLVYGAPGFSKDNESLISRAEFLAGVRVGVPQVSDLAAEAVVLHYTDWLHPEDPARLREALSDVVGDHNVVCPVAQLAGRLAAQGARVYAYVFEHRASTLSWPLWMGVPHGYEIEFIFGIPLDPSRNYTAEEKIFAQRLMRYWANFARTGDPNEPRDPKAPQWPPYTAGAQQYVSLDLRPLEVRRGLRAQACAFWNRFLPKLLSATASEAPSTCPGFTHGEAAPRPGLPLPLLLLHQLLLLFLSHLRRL
T1 sequence (O42275 24-633): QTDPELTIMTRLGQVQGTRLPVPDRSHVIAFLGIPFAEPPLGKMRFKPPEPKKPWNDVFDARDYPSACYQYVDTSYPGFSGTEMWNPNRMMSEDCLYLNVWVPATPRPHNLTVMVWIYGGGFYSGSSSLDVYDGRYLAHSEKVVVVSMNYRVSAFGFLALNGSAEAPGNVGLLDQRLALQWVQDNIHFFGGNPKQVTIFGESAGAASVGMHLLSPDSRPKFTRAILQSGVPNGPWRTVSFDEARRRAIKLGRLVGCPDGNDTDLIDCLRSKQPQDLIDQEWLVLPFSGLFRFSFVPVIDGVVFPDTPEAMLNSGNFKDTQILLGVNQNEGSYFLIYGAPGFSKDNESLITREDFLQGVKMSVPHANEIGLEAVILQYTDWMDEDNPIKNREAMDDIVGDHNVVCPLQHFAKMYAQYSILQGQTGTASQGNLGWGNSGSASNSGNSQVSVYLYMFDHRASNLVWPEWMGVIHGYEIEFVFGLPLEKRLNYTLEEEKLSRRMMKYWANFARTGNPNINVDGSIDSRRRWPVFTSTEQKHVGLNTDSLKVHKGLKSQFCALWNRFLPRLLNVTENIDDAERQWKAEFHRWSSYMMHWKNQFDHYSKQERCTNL
Chain of β-amyloid (1–42) (Aβ42) (P05067 672-713 limits assumed): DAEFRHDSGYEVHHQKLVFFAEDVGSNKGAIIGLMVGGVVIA

Oc1ccccc1/C=N/CCCCCCNc1c2c(nc3ccccc13)CCCC2 [10b]
Propidium Displacement from EeAChE PAS (EeAChE PAS): 18.2 ± 1.4% | IC50 (human erythrocyte AChE): 0.103 ± 0.006 µM | IC50 (equine serum BChE [1]): 0.0354 ± 0.0017 µM | Shift of Absorbance, Cu(II) [2]: 255 nm | IC50 ([3]; 50% reduction of ABTS radical cation): 31.8 ± 1.6 µM | ABTS^•+ Scavenging Activity, TEAC ([3]; Trolox equivalent, n.a. = not active): 0.47 ± 0.04 | FRAP, TE (FRAP assay): 0.03 | Inhibitory activity against CES, inhibition at 20 µM (porcine liver CES [4]): 17.9 ± 0.8% | inhibition at 100 µM (β-amyloid (1–42) (Aβ42)): 67.9 ± 5.4%

COc1ccccc1C(=O)NCCCCCCNc1c2c(nc3ccccc13)CCCC2 [6b]
Propidium Displacement from EeAChE PAS (EeAChE PAS): 12.5 ± 0.8% | IC50 (human erythrocyte AChE): 0.646 ± 0.041 µM | IC50 (equine serum BChE [1]): 0.0377 ± 0.0031 µM | Shift of Absorbance, Cu(II) [2]: 254 nm | FRAP, TE (FRAP assay): 0.02 | Inhibitory activity against CES, inhibition at 20 µM (porcine liver CES [4]): 8.0 ± 1.3% | inhibition at 100 µM (β-amyloid (1–42) (Aβ42)): 30.8 ± 2.1%

N-hexylsalicylamide
Inhibitory activity against BChE, inhibition at 20 µM (equine serum BChE [5]): 10.6 ± 0.8% | IC50 ([6]; 50% reduction of ABTS radical cation, read-out: ABTS^•+ Scavenging Activity, IC50): 46.5 ± 2.3 µM | ABTS^•+ Scavenging Activity, TEAC ([6]; Trolox equivalent): 0.39 ± 0.04 | Inhibitory activity against CES, inhibition at 20 µM (porcine liver CES [7]): 4.9 ± 1.0%
